Tests used:
Cocklebur [1] = assay: Preemergence herbicidal activity, cocklebur; assay type: in vivo, Xanthium pensylvanicum; details: Xanthium strumarium, pre-emergence, 0.3 kg/ha, after 17-21 days, read-out: Preemergence herbicidal activity (% control), Cocklebur
Description: (§1) The 3-[4-(phenylmethoxy)phenyl]-1-substituted-6-haloalkyluracil herbicides of this invention were tested for pre- and postemergence herbicidal activity using a variety of crops and weeds. The test plants included soybean (Glycine max var. Williams), field corn (Zea mays var. Agway 425X), wheat (Triticum aestivum var. Wheaton), morningglory (Ipomea lacunosa or Ipomea hederacea), velvetleaf (Abutilon theophrasti), green foxtail (Setaria viridis), Johnsongrass (Sorghum halepense), blackgrass (Aloepecurus myosuroides), common chickweed (Stellaria media), and common cocklebur (Xanthium pensylvanicum).
(§2) For preemergence testing, two disposable fiber flats (8 cm×15 cm×25 cm) for each rate of application of each candidate herbicide were filled to an approximate depth of 6.5 cm with steam-sterilized sandy loam soil. The soil was leveled and impressed with a template to provide five evenly spaced furrows 13 cm long and 0.5 cm deep in each flat. Seeds of soybean, wheat, corn, green foxtail, and johnsongrass were planted in the furrows of the first flat, and seeds of velvetleaf, morningglory, common chickweed, cocklebur, and blackgrass were planted in the furrows of the second flat. The five-row template was employed to firmly press the seeds into place. A topping soil of equal portions of sand and sandy loam soil was placed uniformly on top of each flat to a depth of approximately 0.5 cm. Flats for postemergence testing were prepared in the same manner except that they were planted 8-12 days prior to the preemergence flats and were placed in a greenhouse and watered, thus allowing the seeds to germinate and the foliage to develop.
(§3) In both pre- and postemergence tests, a stock solution of the candidate herbicide was prepared by dissolving 0.27 g of the compound in 20 mL of water/acetone (50/50) containing 0.5% v/v sorbitan monolaurate. For an application rate of 3000 g/ha of herbicide a 10 mL portion of the stock solution was diluted with water/acetone (50/50) to 45 mL.
(§4) The preemergence flats were initially subjected to a light water spray. The four flats were placed two by two along a conveyor belt (i.e., the two preemergence followed by the two postemergence flats). The conveyor belt fed under a spray nozzle mounted about ten inches above the postemergent foliage. The preemergent flats were elevated on the belt so that the soil surface was at the same level below the spray nozzle as the foliage canopy of the postemergent plants. The spray of herbicidal solution was commenced and once stabilized, the flats were passed under the spray at a speed to receive a coverage equivalent of 1000 L/ha. At this coverage the application rates are those shown in the above table for the individual herbicidal solutions. The preemergence flats were watered immediately thereafter, placed in the greenhouse and watered regularly at the soil surface. The postemergence flats were immediately placed in the greenhouse and not watered until 24 hours after treatment with the test solution. Thereafter they were regularly watered at ground level. After 17-21 days the plants were examined and the phytotoxicity data were recorded.
(§5) Herbicidal activity data at selected application rates are given for various compounds of this invention in Table 2 and Table 3. The test compounds are identified by numbers which correspond to those in Table 1.
(§6) Phytotoxicity data were taken as percent control. Percent control was determined by a method similar to the 0 to 100 rating system disclosed in "Research Methods in Weed Science," 2nd ed., B. Truelove, Ed.; Southern Weed Science Society; Auburn University, Auburn, Ala., 1977.

Cocklebur [2] = assay: Postemergence herbicidal activity, cocklebur; assay type: in vivo, Xanthium pensylvanicum; details: Xanthium strumarium, post-emergence, 0.3 kg/ha, after 17-21 days, read-out: Postemergence herbicidal activity (% control), Cocklebur
Description: as §1, §2, §3, §4, §5, §6

Johnsongrass [3] = assay: Preemergence herbicidal activity, johnsongrass; assay type: in vivo; details: Sorghum halepense, pre-emergence, 0.3 kg/ha, after 17-21 days, read-out: Preemergence herbicidal activity (% control), Johnsongrass
Description: as §1, §2, §3, §4, §5, §6

Green foxtail [4] = assay: Preemergence herbicidal activity, green foxtail; assay type: in vivo; details: Setaria viridis, pre-emergence, 0.3 kg/ha, after 17-21 days, read-out: Preemergence herbicidal activity (% control), Green foxtail
Description: as §1, §2, §3, §4, §5, §6

Blackgrass [5] = assay: Postemergence herbicidal activity, blackgrass; assay type: in vivo, Aloepecurus myosuroides; details: Alopecurus myosuroides, post-emergence, 0.3 kg/ha, after 17-21 days, read-out: Postemergence herbicidal activity (% control), Blackgrass
Description: as §1, §2, §3, §4, §5, §6

Morningglory [6] = assay: Preemergence herbicidal activity, morningglory; assay type: in vivo, Ipomea lacunosa or Ipomea hederacea; details: Ipomoea, pre-emergence, 0.3 kg/ha, after 17-21 days, read-out: Preemergence herbicidal activity (% control), Morningglory
Description: as §1, §2, §3, §4, §5, §6

Soybean [7] = assay: Preemergence herbicidal activity, soybean; assay type: in vivo, Glycine max var. Williams; details: Glycine max, pre-emergence, 0.3 kg/ha, after 17-21 days, read-out: Preemergence herbicidal activity (% control), Soybean
Description: as §1, §2, §3, §4, §5, §6

Wheat [8] = assay: Postemergence herbicidal activity, wheat; assay type: in vivo, Triticum aestivum var. Wheaton; details: Triticum aestivum, post-emergence, 0.3 kg/ha, after 17-21 days, read-out: Postemergence herbicidal activity (% control), Wheat
Description: as §1, §2, §3, §4, §5, §6

Corn [9] = assay: Preemergence herbicidal activity, corn; assay type: in vivo, Zea mays var. Agway 425X; details: Zea mays, pre-emergence, 0.3 kg/ha, after 17-21 days, read-out: Preemergence herbicidal activity (% control), Corn
Description: as §1, §2, §3, §4, §5, §6

Velvetleaf [10] = assay: Preemergence herbicidal activity, velvetleaf; assay type: in vivo; details: Abutilon theophrasti, pre-emergence, 0.3 kg/ha, after 17-21 days, read-out: Preemergence herbicidal activity (% control), Velvetleaf
Description: as §1, §2, §3, §4, §5, §6

Blackgrass [11] = assay: Preemergence herbicidal activity, blackgrass; assay type: in vivo, Aloepecurus myosuroides; details: Alopecurus myosuroides, pre-emergence, 0.3 kg/ha, after 17-21 days, read-out: Preemergence herbicidal activity (% control), Blackgrass
Description: as §1, §2, §3, §4, §5, §6

Chickweed [12] = assay: Preemergence herbicidal activity, chickweed; assay type: in vivo; details: Stellaria media, pre-emergence, 0.3 kg/ha, after 17-21 days, read-out: Preemergence herbicidal activity (% control), Chickweed
Description: as §1, §2, §3, §4, §5, §6

Velvetleaf [13] = assay: Postemergence herbicidal activity, velvetleaf; assay type: in vivo; details: Abutilon theophrasti, post-emergence, 0.3 kg/ha, after 17-21 days, read-out: Postemergence herbicidal activity (% control), Velvetleaf
Description: as §1, §2, §3, §4, §5, §6

Soybean [14] = assay: Postemergence herbicidal activity, soybean; assay type: in vivo, Glycine max var. Williams; details: Glycine max, post-emergence, 0.3 kg/ha, after 17-21 days, read-out: Postemergence herbicidal activity (% control), Soybean
Description: as §1, §2, §3, §4, §5, §6

Green foxtail [15] = assay: Postemergence herbicidal activity, green foxtail; assay type: in vivo; details: Setaria viridis, post-emergence, 0.3 kg/ha, after 17-21 days, read-out: Postemergence herbicidal activity (% control), Green foxtail
Description: as §1, §2, §3, §4, §5, §6

Johnsongrass [16] = assay: Postemergence herbicidal activity, johnsongrass; assay type: in vivo; details: Sorghum halepense, post-emergence, 0.3 kg/ha, after 17-21 days, read-out: Postemergence herbicidal activity (% control), Johnsongrass
Description: as §1, §2, §3, §4, §5, §6

Morningglory [17] = assay: Postemergence herbicidal activity, morningglory; assay type: in vivo, Ipomea lacunosa or Ipomea hederacea; details: Ipomoea, post-emergence, 0.3 kg/ha, after 17-21 days, read-out: Postemergence herbicidal activity (% control), Morningglory
Description: as §1, §2, §3, §4, §5, §6

Wheat [18] = assay: Preemergence herbicidal activity, wheat; assay type: in vivo, Triticum aestivum var. Wheaton; details: Triticum aestivum, pre-emergence, 0.3 kg/ha, after 17-21 days, read-out: Preemergence herbicidal activity (% control), Wheat
Description: as §1, §2, §3, §4, §5, §6

Corn [19] = assay: Postemergence herbicidal activity, corn; assay type: in vivo, Zea mays var. Agway 425X; details: Zea mays, post-emergence, 0.3 kg/ha, after 17-21 days, read-out: Postemergence herbicidal activity (% control), Corn
Description: as §1, §2, §3, §4, §5, §6

Chickweed [20] = assay: Postemergence herbicidal activity, chickweed; assay type: in vivo; details: Stellaria media, post-emergence, 0.3 kg/ha, after 17-21 days, read-out: Postemergence herbicidal activity (% control), Chickweed
Description: as §1, §2, §3, §4, §5, §6

Compound | activity at 300 g/ha (Cocklebur [1]) | activity at 300 g/ha (Cocklebur [2]) | activity at 300 g/ha (Johnsongrass [3]) | activity at 300 g/ha (Green foxtail [4]) | activity at 300 g/ha (Blackgrass [5]) | activity at 300 g/ha (Morningglory [6]) | activity at 300 g/ha (Soybean [7]) | activity at 300 g/ha (Wheat [8]) | activity at 300 g/ha (Corn [9]) | activity at 300 g/ha (Velvetleaf [10]) | activity at 300 g/ha (Blackgrass [11]) | activity at 300 g/ha (Chickweed [12]) | activity at 300 g/ha (Velvetleaf [13]) | activity at 300 g/ha (Soybean [14]) | activity at 300 g/ha (Green foxtail [15]) | activity at 300 g/ha (Johnsongrass [16]) | activity at 300 g/ha (Morningglory [17]) | activity at 300 g/ha (Wheat [18]) | activity at 300 g/ha (Corn [19]) | activity at 300 g/ha (Chickweed [20])
Cn1c(C(F)(F)F)cc(=O)n(-c2ccc(OCc3ccc(C(F)(F)F)cc3)cc2)c1=O [Compound 22] | 50% | 40% | 70% | 100% | 30% | 90% | 90% | 20% | 30% | 100% | 15% | 100% | 40% | 50% | 90% | 80% | 95% | 0% | 20% | 15%
COc1ccccc1COc1ccc(-n2c(=O)cc(C(F)(F)F)n(C)c2=O)cc1 [Compound 40] | 20% | 100% | 100% | 100% | 10% | 100% | 50% | 20% | 75% | 100% | 30% | 80% | 100% | 90% | 100% | 90% | 90% | 20% | 50% | 15%
Cn1c(C(F)(F)F)cc(=O)n(-c2ccc(OCc3ccc(Cl)c(Cl)c3)cc2)c1=O [Compound 41] | 20% | 100% | 20% | 95% | 0% | 80% | 40% | 0% | 0% | 100% | 20% | 95% | 100% | 85% | 45% | 35% | 100% | 0% | 25% | 85%
Cn1c(C(F)(F)F)cc(=O)n(-c2ccc(OCc3cc(Cl)cc(Cl)c3)cc2)c1=O [Compound 43] | 0% | 0% | 0% | 0% | 0% | 0% | 0% | 0% | 0% | 0% | 0% | 0% | 0% | 10% | 0% | 30% | 10% | 0% | 30% | 0%
COc1ccc(COc2ccc(-n3c(=O)cc(C(F)(F)F)n(C)c3=O)cc2)cc1 [Compound 44] | 25% | 50% | 10% | 60% | 50% | 100% | 40% | 10% | 0% | 100% | 20% | 20% | 40% | 40% | 70% | 50% | 90% | 10% | 30% | 20%

Reference: patent publication US5399543A, “3-[4-(phenylmethoxy)phenyl]-1-substituted-6-haloalkyl-uracil herbicides” (FMC Corporation, priority 1993, dated 1995)
